The text below walks through data of patent US7256180B2 (priority 2000, dated 2007).

Read-outs that look alike come from different tables or passages of the source. {C11P} = undecylphosphate group; {Acr} = acridine group

The test system of data set [1] is HSV-1 virus (strain L2). In kind it is cell-based, Herpes Simplex Virus 1. Conditions: Vero cells, 24 hours.
For data set [2], the system named is HSV-1. The format is cell-based, Herpes Simplex Virus 1. To be noted: BHK cells, oligonucleotide 3.0 μM.
For data set [3], the system named is HSV-1 (strain CI). The format is in vivo, mice.

With “Free Anti-HSV: CGTTCCTCCTGU, 5′ undecylphosphate and 3′ acridine modified (5' {C11P}, 3' {Acr}, sugars by position and backbone not given here)”, the “HSV-1 Infectious Titre (CPE50/ml) (n = 7)” value is given as 0.9 (±0.4) × 10^5 CPE50/ml in data set [1] (oligo conc. 0.2 μM), 2.3 (±0.7) × 10^3 CPE50/ml in data set [1] (oligo conc. 1.0 μM), 1.6 (±0.4) × 10^2 CPE50/ml in data set [1] (oligo conc. 5.0 μM) and 50 (±14) × 10^2 CPE50/ml in data set [2]. The “Animals Survived/No. of Animals in group, Exp. 1” value in data set [3] (mouse, in vivo, iv) is given as 1/10. For the same substance, the “Animals Survived/No. of Animals in group, Exp. 2” value in data set [3] (mouse, in vivo, iv) is 1/10. In addition, the “Animals Survived/No. of Animals in group, Exp. 3” value in data set [3] (mouse, in vivo, iv) was 0/10. Moreover, the “% Survival” value in data set [3] (over Exp. 1-3) was 7.0%.
